Measurements reported in ChEMBL document CHEMBL2203023, “Synopsis of some recent tactical application of bioisosteres in drug design” (J Med Chem, 2011).

What was measured:
[1] = target: T1, Dolichol-phosphate-mannose synthase (Trypanosoma brucei brucei) (UniProt Q5QQ41); details: 1 mM
T1 sequence (whole entry): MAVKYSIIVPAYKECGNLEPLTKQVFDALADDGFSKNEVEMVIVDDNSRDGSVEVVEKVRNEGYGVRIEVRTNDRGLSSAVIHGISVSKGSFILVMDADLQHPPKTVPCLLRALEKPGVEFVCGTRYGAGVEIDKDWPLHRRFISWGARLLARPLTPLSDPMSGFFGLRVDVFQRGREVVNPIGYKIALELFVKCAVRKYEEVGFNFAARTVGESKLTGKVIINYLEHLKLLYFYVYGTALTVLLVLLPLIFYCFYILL

4-aminobutyrate aminotransferase, mitochondrial (Homo sapiens), P80404, sequence (P80404 whole entry): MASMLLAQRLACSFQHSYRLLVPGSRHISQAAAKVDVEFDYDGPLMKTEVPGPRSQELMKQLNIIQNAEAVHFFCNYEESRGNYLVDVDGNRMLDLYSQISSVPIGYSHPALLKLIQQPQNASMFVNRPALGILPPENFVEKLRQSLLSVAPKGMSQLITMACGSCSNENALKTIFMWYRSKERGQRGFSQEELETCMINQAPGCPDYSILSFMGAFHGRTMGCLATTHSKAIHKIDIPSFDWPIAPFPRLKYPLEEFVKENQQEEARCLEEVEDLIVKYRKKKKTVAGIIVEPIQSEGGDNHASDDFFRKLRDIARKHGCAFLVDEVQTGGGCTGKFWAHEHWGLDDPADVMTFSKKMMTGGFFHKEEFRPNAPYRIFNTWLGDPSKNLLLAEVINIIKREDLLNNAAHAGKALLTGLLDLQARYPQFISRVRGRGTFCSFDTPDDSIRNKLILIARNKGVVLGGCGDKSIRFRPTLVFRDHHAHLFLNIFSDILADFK

| inhibition [1] | Compound | Km (NCCCC(=O)O) |
| --- | --- | --- |
| 64% | Nc1nc2c(ncn2[C@@H]2O[C@H](CNc3c(NCc4ccccc4C(=O)O)c(=O)c3=O)[C@@H](O)[C@H]2O)c(=O)[nH]1 |  |
| 8.5% | Nc1nc2c(ncn2[C@@H]2O[C@H](COP(=O)(O)OP(=O)(O)O)[C@@H](O)[C@H]2O)c(=O)[nH]1 |  |
|  | 4-aminobutyrate aminotransferase, mitochondrial (Homo sapiens), P80404 | 2500 µM |
